Assays:
[1] = tested on: H1755 cells; test: caspase-3/7 activation (apoptosis) assay in H1755 cells; assay type: cell-based, human
Description: H1755 cells were cultured using EMEM with 10% FBS. FBS was charcoal-filtered to remove endogenous steroids. Cells were plated at 5000 cell per well and treated 24 hours after plating. H1755 cell samples treated with DEX received DEX 30 minutes prior to administration of PTX or a vehicle control. Vehicle controls are the same as those discussed in Example 1. Additionally, during PTX and/or DEX drug dosing, a caspase-3/7 activation reagent was added to the cell samples, for example, Caspase-3/7 reagent (Essen BioScience, Ann Arbor, Mich; Catalog No. 4440). Specifically, the CELLPLAYER™ Kinetic Caspase-3/7 activation assay reagents (Essen BioScience, Ann Arbor, Mich.) were used to detect caspase-3/7 activation.
At time points following PTX administration the activation of the caspase-3/7 reagent was measured with, for example, an INCUCYTE™ FLR (Essen BioScience, Ann Arbor, Mich.). […] Apoptotic or apoptosing H1755 cells (caspase-3/7 positive cells) are indicated in white, as measured by caspase-3/7 activation (FIGS. 3A-3D).
To determine the EC50 of DEX in H1755 cells, a series of PTX concentrations were evaluated for caspase-3/7 activation across a series of DEX concentrations. […]
H1755 cell samples were treated with 0, 0.43, 1.3, 4.12, 12.3, 37, 111, 333, 1000, or 3000 nM PTX. […] At time points following drug administration, caspase-3/7 activation was measured as discussed in Example 1.

[2] = tested on: H522 cell line; test: caspase-3/7 activation assay in H522 cell line; assay type: cell-based; conditions: 100 nM DEX, 100 nM PTX, H522 (minimal level of GR)
[3] = tested on: H23 cells; test: caspase-3/7 activation assay in H23 cells; assay type: cell-based; conditions: H23 cells (low level of GR expression), data not shown
[4] = tested on: MKP-1; test: qRT-PCR of MKP-1 mRNA in H1755 cells; assay type: cell-based, human; conditions: 100 nM DEX, H1755 cells, 1, 4 or 24 hours
Description: (§1) H1755 and H522 cells were cultured using RPMI media that was charcoal-filtered media to remove steroids. Cell samples received one of the following treatments: vehicle control (0.1% EtOH for DEX vehicle control or 0.1% DMSO for PTX vehicle control), 100 nM DEX, 100 nM PTX, or 100 nM DEX and 100 nM PTX. At 1 hour, 4 hours, or 24 hours after drug administration, cell samples were harvested and mRNA levels of MKP-1 and SGK1 were measured via quantitative real-time polymerase chain reaction (qRT-PGR). Western blot analysis of GR, phosphorylated JNK1 (P-JNK1; phosphorylation at Thr 183 and Tyr 185), JNK1, phosphorylated c-Jun (P c-Jun; phosphorylation at Ser 73 or Ser 63), c-Jun, phosphorylated MKP1 (pMKP1; phosphorylated at Ser 359), SG1, phosphorylated MCL-1 (pMCL-1; phosphorylated at Ser 64), MCL-1, phosphorylated BCL2 (pBC1,2; phosphorylated at Ser 70), BCL2, BCLXL, cleaved caspase-3, and GAPDH (for purposes of normalization) was performed following treatment with either a vehicle control (0.1% EtOH for DEX vehicle control or 0.1% DMSO for PTX vehicle control), 100 nM DEX, 100 nM PTX, or 100 nM DEX and 100 nM PTX.

[5] = tested on: SGK1; test: qRT-PCR of SGK1 mRNA in H1755 cells; assay type: cell-based, human; conditions: 100 nM DEX, H1755 cells, 1, 4 or 24 hours
Description: as §1

[6] = tested on: MAP TAU; test: Western blot of MAP TAU in H1755 cells; assay type: cell-based, human
Description: H1755 and H522 cells were analyzed by Western blot at 4 and 24 hours following administration of a vehicle control (0.1% EtOH for DEX vehicle control or 0.1% DMSO for PTX vehicle control), 100 nM DEX, 100 nM PTX, or 100 nM DEX and 100 nM PTX.

[7] = tested on: MDA-MB-231 cells; test: caspase-3/7 activation (apoptosis) assay in MDA-MB-231 cells; assay type: cell-based; conditions: PTX 0-3000 nM alone, roughly 34.5 hours
Description: MDA-MB-231 cells were cultured using Eagle's minimum essential medium (EMEM) with 10% fetal bovine serum (FBS). FBS was charcoal-filtered to remove endogenous steroids. Cells were plated at 5000 cell per well and treated 24 hours after plating. PTX doses of 3000, 1000, 333.3, 111.1, 37.0, 12.3, 4.1, 1.4, 0.5, and 0 nM were evaluated. MDA-MB-231 cell samples treated with DEX received 100 nM DEX 30 minutes prior to administration of PTX or a vehicle control. The vehicle control for DEX was 0.1% ethanol, final concentration after addition. The vehicle control for PTX was 0.1% DMSO, final concentration after addition. Additionally, during PTX and/or DEX drug dosing, a caspase-3/7 activation reagent was added to the cell samples, for example, Caspase-3/7 reagent (Essen BioScience, Ann Arbor, Mich.; Catalog No. 4440). Specifically, the CELLPLAYER™ Kinetic Caspase-3/7 activation assay reagents (Essen BioScience, Ann Arbor, Mich.) were used to detect caspase-3/7 activation.
At time points following PTX administration (e.g., roughly every 3 hours) the activation of the caspase-3/7 reagent was measured with, for example, an INCUCYTE™ FLR (Essen BioScience, Ann Arbor, Mich.). Activation of caspase-3/7 is indicative of an apoptotic and/or an apoptosing cell. All concentrations of PTX, both with and without DEX, were evaluated in triplicate.

[8] = tested on: phosphorylated c-Jun (Ser 73); test: Western blot of phosphorylated c-Jun (Ser 73) in H1755 cells; assay type: cell-based, human; conditions: 100 nM PTX, 4 hours
Description: (§2) H1755 and H522 cells were cultured using RPMI media that was charcoal-filtered media to remove steroids. Cell samples received one of the following treatments: vehicle control (0.1% EtOH for DEX vehicle control or 0.1% DMSO for PTX vehicle control), 100 nM DEX, 100 nM PTX, or 100 nM DEX and 100 nM PTX. At 1 hour, 4 hours, or 24 hours after drug administration, cell samples were harvested and mRNA levels of MKP-1 and SGK1 were measured via quantitative real-time polymerase chain reaction (qRT-PGR). […]
(§3) In addition to measuring MKP-1 and SGK1 mRNA expression, a series of proteins (and their phosphorylation status) involved in stress pathway signaling were evaluated via Western blot to measure changes following treatment with DEX, PTX, or DEX and PTX. JNK1 was measured after 2 hours of treatment, P c-Jun, c-Jun, pMPK1, and SGK1 were measured after 4 hours of treatment, and other measurements were after 24 hours of treatment. […]

[9] = tested on: phosphorylated c-Jun (Ser 73); test: Western blot of phosphorylated c-Jun (Ser 73) in H522 cells; assay type: cell-based; conditions: 100 nM PTX, 4 hours
Description: as §2, §3

[10] = tested on: MCL1; test: Western blot of MCL1 and phosphorylated MCL1; assay type: cell-based; conditions: 100 nM PTX, 24 hours, H1755 and H522 cells
Description: as §1
(§4) Furthermore, pro-survival markers, MCL1, BCL2, and BCLXL, were measured by Western blot to evaluate changes following treatment with DEX, PTX, or DEX and PTX. MCL1, BCL2, and BCLXL inhibit apoptosis by blocking activation of caspases, such as, caspase-3. […]

[11] = tested on: phosphorylated BCL2; test: Western blot of phosphorylated BCL2 in H1755 cells; assay type: cell-based, human; conditions: 100 nM PTX, 24 hours
Description: as §1, §4

[12] = tested on: BCLXL; test: Western blot of BCLXL in H1755 cells; assay type: cell-based, human; conditions: 100 nM PTX, 24 hours
Description: as §1, §4

[13] = tested on: BCLXL; test: Western blot of BCLXL in H522 cells; assay type: cell-based; conditions: 100 nM PTX, 24 hours
Description: as §1, §4

[14] = tested on: cleaved caspase-3; test: Western blot of cleaved caspase-3 in H1755 cells; assay type: cell-based, human; conditions: 100 nM PTX, 24 hours
Description: as §1, §4

[15] = tested on: cleaved caspase-3; test: Western blot of cleaved caspase-3 in H522 cells; assay type: cell-based; conditions: 100 nM PTX, 24 hours
Description: as §1, §4

[16] = tested on: ERK, phosphorylated ERK, p38, and phosphorylated p38; test: Western blot of MAPK pathway proteins in H1755 and H522 cells; assay type: cell-based; conditions: 100 nM DEX and/or 100 nM PTX, 4 hours
Description: H1755 and H522 cells were analyzed by Western blot at 4 hours following administration of a vehicle control (0.1% EtOH for DEX vehicle control or 0.1% DMSO for PTX vehicle control), 100 nM DEX, 100 nM PTX, or 100 nM DEX and 100 nM PTX.

EC50 ([1]; Homo sapiens, NCI-H1755, caspase-3/7 activation, series of PTX and DEX concentrations) [nM] | SMILES | DEX antagonism of PTX-induced apoptosis [2] | DEX effect on PTX-induced apoptosis [3] | up-regulation of MKP-1 mRNA by DEX, maximum [4] [fold] | up-regulation of SGK1 mRNA by DEX, maximum [5] [fold] | increase of MAP TAU in cells treated with DEX and PTX ([6]; 100 nM DEX and 100 nM PTX, 24 hours) [fold] | DEX-induced upregulation of MAP TAU ([6]; 100 nM DEX, 24 hours after drug administration) [fold] | level of apoptosis (as measured by level of caspase-3/7 activation) [7] | level of apoptosis (caspase-3/7 activation), PTX alone ([1]; 111 nM PTX) | phosphorylation of c-Jun on Ser 73 following PTX treatment [8] | phosphorylation of c-Jun on Ser 73 following PTX treatment [9] | phosphorylation of MCL1 [10] | total expression of MCL1 [10] | phosphorylation of BCL2 [11] | BCLXL expression [12] | BCLXL expression [13] | expression of cleaved caspase-3 [14] | expression of cleaved caspase-3 [15] | change of MAPK pathway proteins and MAPK signaling mechanisms [16]
4 | C[C@@H]1C[C@H]2[C@@H]3CCC4=CC(=O)C=C[C@]4(C)[C@@]3(F)[C@@H](O)C[C@]2(C)[C@@]1(O)C(=O)CO [DEX, dexamethasone] | no effect | no effect | 8 | 2.5 | 2 | 5 | – | – | – | – | – | – | – | – | – | – | – | –
– | CC(=O)O[C@H]1C(=O)[C@@]2(C)[C@H]([C@H](OC(=O)c3ccccc3)[C@]3(O)C[C@H](OC(=O)[C@H](O)[C@@H](NC(=O)c4ccccc4)c4ccccc4)C(C)=C1C3(C)C)[C@]1(OC(C)=O)CO[C@@H]1C[C@@H]2O [PTX, paclitaxel] | – | – | – | – | – | – | higher concentrations of PTX induced increased levels of apoptosis | marked increase in apoptosis | increased | increased | up-regulated | decreasing | up-regulated | down-regulated | not H522 cells | increases | increases | minimally changed

Reference: US20180064679A1, “METHOD FOR TREATING CANCER BASED ON LEVEL OF GLUCOCORTICOID RECEPTOR” (Abraxis BioScience, LLC, priority 2015, published 2018)
